Results as given in patent US20230279025A1, “KRAS G12D INHIBITORS” (Mirati Therapeutics, Inc., priority 2020, published 2023).
pIC50, pKd: −log10 of the molar value.

Tests used:
KRas G12D [1] = molecular target: T1, KRas G12D (Homo sapiens (Human), UniProt P01116, G12D); assay: KRas G12D Binding Assay (TR-FRET displacement of Cy5 labelled tracer); conditions: GDP-loaded KRAS G12D (amino acids 1:169), 60 minute incubation at 22° C.
Procedure: After a 60 minute incubation at 22° C., the reaction was measured using a PerkinElmer EnVision multimode plate reader via TR-FRET dual wavelength detection, and the percent of control (POC) calculated using a ratiometric emission factor. […] The POC values were fit to a 4-parameter logistic curve and the IC50 value was determined as the concentration where the curve crosses 50 POC.
ND stands for “not determined.”
Target sequence in this assay (P01116 other isoform, or with tags, fused parts or gaps G12D): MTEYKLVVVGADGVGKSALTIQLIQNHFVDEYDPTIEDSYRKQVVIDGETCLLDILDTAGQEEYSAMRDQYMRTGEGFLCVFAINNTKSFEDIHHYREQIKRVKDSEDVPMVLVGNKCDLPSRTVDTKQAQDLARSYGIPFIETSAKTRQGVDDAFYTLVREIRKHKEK

KRas G12D [2] = molecular target: T1, KRas G12D; assay: KRas G12D Surface Plasmon Resonance (SPR) Binding Assay; conditions: Biacore T200, immobilized biotinylated KRAS protein, 1:1 binding model
Procedure: Briefly, 1L of 1.05X HBS-Mg buffer (262.5 mM Bioultra Hepes, pH 7.5, 157.5 mM NaCl, 105 mM MgCl2, 0.525 mM TCEP, 0.0305% Brij-35) was prepared and filter sterilized using a 0.22 μm bottle top filter. Approximately 50 mL of 1.05X HBS-Mg buffer was removed and saved for future dilutions. A 50 mL aliquot of DMSO (Sigma Aldrich DMSO Lot. #SHBK2079) was added and continued to stir for 10 minutes, creating the final 1.0X HBS-Mg buffer (250 mM Bioultra Hepes pH 7.5, 150 mM NaCl, 100 mM MgCl2, 0.5 mM TCEP, 0.03% Brij-35).
Biacore T200 instrument was primed using 1.0X HBS-Mg buffer before docking a GE Streptavidin (SA) chip and then primed two additional times prior to beginning the immobilization step. All immobilized protein mixtures were created using 3-5 mg/mL Biotinylated Avidin-tagged KRAS protein using the following immobilization settings: SA chip type, 1 flow cells per cycle, 720 second contact time, and 5 ul/min flow rate. Normalization of the detector was also performed during the immobilization step using the GE BiaNormalize solution.
All compounds were diluted to 10 mM in 100% DMSO prior to being diluted 20X in 1.05X buffer. Another 10X dilution was created using 1.0X buffer prior to performing a series of 3X dilutions to create a compound concentration curve using the following assay settings: 20C analysis temperature, General Settings=10 Hz data collection rate and multi-detection; Assay Steps=all set to LMW kinetics; Cycle Types=LMW kinetics (60 s contact time, 120 s dissociation time, 100 ul/min flow rate, extra wash after injection with 50% DMSO, flow path 1,2,3,4); Flow path detection=2-1, 4-3). Data evaluation was performed using the Biacore T200 Evaluation software and data fit to 1:1 binding model. ND=not determined.
Target sequence in this assay (P01116-2 other isoform, or with tags, fused parts or gaps G12D): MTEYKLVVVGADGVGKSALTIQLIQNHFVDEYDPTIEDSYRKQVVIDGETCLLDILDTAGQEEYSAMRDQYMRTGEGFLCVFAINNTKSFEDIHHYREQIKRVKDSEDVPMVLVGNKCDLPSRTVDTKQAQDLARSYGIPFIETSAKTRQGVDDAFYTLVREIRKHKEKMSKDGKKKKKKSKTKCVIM

Compound	pIC50 (KRas G12D [1])	pKd (KRas G12D [2])
Fc1c(-c2cccc3cccc(Cl)c23)ncc2c(N3C[C@H]4CC[C@@H](C3)N4)nc(OC[C@@H]3CCCN3Cc3ccccc3)nc12 [Example 97, 2-(((S)-1-benzylpyrrolidin-2-yl)methoxy)-4-((1R,5S)-3,8-diazabicyclo[3.2.1]octan-3-yl)-7-(8-chloronaphthalen-1-yl)-8-fluoropyrido[4,3-d]pyrimidine]	6.03	5.23
Fc1ccc2cccc(-c3ncc4c(N5C[C@H]6CC[C@@H](C5)N6)nc(OCCc5cccnc5)nc4c3F)c2c1 [Example 90, 4-((1R,5S)-3,8-diazabicyclo[3.2.1]octan-3-yl)-8-fluoro-7-(7-fluoronaphthalen-1-yl)-2-(2-(pyridin-3-yl)ethoxy)pyrido[4,3-d]pyrimidine]	5.35	5.11
O=S1(=O)CCC(Oc2nc(N3C[C@H]4CC[C@@H](C3)N4)c3cnc(-c4cc(O)cc5ccccc45)c(F)c3n2)CC1 [Example 71, 4-((4-((1R,5S)-3,8-diazabicyclo[3.2.1]octan-3-yl)-8-fluoro-7-(3-hydroxynaphthalen-1-yl)pyrido[4,3-d]pyrimidin-2-yl)oxy)tetrahydro-2H-thiopyran 1,1-dioxide]	6.90	6.86
Oc1cc(-c2ncc3c(N4C[C@H]5CC[C@@H](C4)N5)nc(OCCc4ccccc4)nc3c2F)c2ccccc2c1 [Example 96, 4-(4-((1R,5S)-3,8-diazabicyclo[3.2.1]octan-3-yl)-8-fluoro-2-phenethoxypyrido[4,3-d]pyrimidin-7-yl)naphthalen-2-ol]	5.65	6.15
CO[C@@H]1C[C@@H](COc2nc(N3C[C@H]4CC[C@@H](C3)N4)c3cnc(-c4cccc5cccc(Cl)c45)c(F)c3n2)N(C)C1 [Example 34, 4-((1R,5S)-3,8-diazabicyclo[3.2.1]octan-3-yl)-7-(8-chloronaphthalen-1-yl)-8-fluoro-2-(((2S,4R)-4-methoxy-1-methylpyrrolidin-2-yl)methoxy)pyrido[4,3-d]pyrimidine]	6.87	6.92
O=Cc1cc(CCCOc2nc(N3C[C@H]4CC[C@@H](C3)N4)c3cnc(-c4cccc5cccc(Cl)c45)c(F)c3n2)ccc1O [Example 320, 5-(3-((4-((1R,5S)-3,8-diazabicyclo[3.2.1]octan-3-yl)-7-(8-chloronaphthalen-1-yl)-8-fluoropyrido[4,3-d]pyrimidin-2-yl)oxy)propyl)-2-hydroxybenzaldehyde]	< 5.00	4.15
CN1CCC[C@H]1COc1nc(N2CC3CCC(CCC#N)(C2)N3)c2cnc(-c3cc(O)cc4ccccc34)c(F)c2n1 (stereo partly drawn) [Example 157, 3-(3-(8-fluoro-7-(3-hydroxynaphthalen-1-yl)-2-(((S)-1-methylpyrrolidin-2-yl)methoxy)pyrido[4,3-d]pyrimidin-4-yl)-3,8-diazabicyclo[3.2.1]octan-1-yl)propanenitrile bis(2,2,2-trifluoroacetate)]	7.58	7.64
Oc1cc(-c2ncc3c(N4C[C@H]5CC[C@@H](C4)N5)nc(OCCc4ncccn4)nc3c2F)c2ccccc2c1 [Example 7, 4-(4-((1R,5S)-3,8-diazabicyclo[3.2.1]octan-3-yl)-8-fluoro-2-(2-(pyrimidin-2-yl)ethoxy)pyrido[4,3-d]pyrimidin-7-yl)naphthalen-2-ol]	5.73	6.33
Cc1cccc2cccc(-c3ncc4c(N5C[C@H]6CC[C@@H](C5)N6)nc(OCCc5cccnc5)nc4c3F)c12 [Example 101, 4-((1R,5S)-3,8-diazabicyclo[3.2.1]octan-3-yl)-8-fluoro-7-(8-methylnaphthalen-1-yl)-2-(2-(pyridin-3-yl)ethoxy)pyrido[4,3-d]pyrimidine]	5.09	4.92
Fc1c(-c2cccc3cccc(Cl)c23)ncc2c(N3C[C@H]4CC[C@@H](C3)N4)nc(OCC34CCCCN3CCC4)nc12 (stereo partly drawn) [Example 54, 4-((1R,5S)-3,8-diazabicyclo[3.2.1]octan-3-yl)-7-(8-chloronaphthalen-1-yl)-8-fluoro-2-((hexahydroindolizin-8a(1H)-yl)methoxy)pyrido[4,3-d]pyrimidine]	7.16	6.93
OC[C@@H]1CCN1c1nc(N2C[C@H]3CC[C@@H](C2)N3)c2cnc(-c3cc(O)cc4ccccc34)c(F)c2n1 [Example 121, 4-(4-((1R,5S)-3,8-diazabicyclo[3.2.1]octan-3-yl)-8-fluoro-2-((S)-2-(hydroxymethyl)azetidin-1-yl)pyrido[4,3-d]pyrimidin-7-yl)naphthalen-2-ol 2,2,2-trifluoroacetate]	6.69	6.71
[O-][S+]1CCC(Oc2nc(N3C[C@H]4CC[C@@H](C3)N4)c3cnc(-c4cc(O)cc5ccccc45)c(F)c3n2)CC1 (stereo partly drawn) [Example 82, 4-((4-((1R,5S)-3,8-diazabicyclo[3.2.1]octan-3-yl)-8-fluoro-7-(3-hydroxynaphthalen-1-yl)pyrido[4,3-d]pyrimidin-2-yl)oxy)tetrahydro-2H-thiopyran 1-oxide]	6.64	6.67
CN1CC(COc2nc(N3C[C@H]4CC[C@@H](C3)N4)c3cnc(-c4cccc5cccc(Cl)c45)c(F)c3n2)CC1=O (stereo partly drawn) [Example 131, 4-(((4-((1R,5S)-3,8-diazabicyclo[3.2.1]octan-3-yl)-7-(8-chloronaphthalen-1-yl)-8-fluoropyrido[4,3-d]pyrimidin-2-yl)oxy)methyl)-1-methylpyrrolidin-2-one]	6.37	5.81
Oc1cc(-c2ncc3c(N4C[C@H]5CC[C@@H](C4)N5)nc(OC4CCC(F)(F)CC4)nc3c2F)c2ccccc2c1 [Example 80, 4-(4-((1R,5S)-3,8-diazabicyclo[3.2.1]octan-3-yl)-2-((4,4-difluorocyclohexyl)oxy)-8-fluoropyrido[4,3-d]pyrimidin-7-yl)naphthalen-2-ol]	6.19	< 3.30
Oc1cc(-c2ncc3c(N4C[C@H]5CC[C@@H](C4)N5)nc(OC4CCSCC4)nc3c2F)c2ccccc2c1 [Example 79, 4-(4-((1R,5S)-3,8-diazabicyclo[3.2.1]octan-3-yl)-8-fluoro-2-((tetrahydro-2H-thiopyran-4-yl)oxy)pyrido[4,3-d]pyrimidin-7-yl)naphthalen-2-ol]	6.47	< 3.00
Cn1ccnc1CCNc1nc(N2C[C@H]3CC[C@@H](C2)N3)c2cnc(-c3cc(O)cc4ccccc34)c(F)c2n1 [Example 111, 4-(4-((1R,5S)-3,8-diazabicyclo[3.2.1]octan-3-yl)-8-fluoro-2-((2-(1-methyl-1H-imidazol-2-yl)ethyl)amino)pyrido[4,3-d]pyrimidin-7-yl)naphthalen-2-ol]	6.55	6.56
CC1CCCc2cccc(-c3ncc4c(N5CC6CCC(C5)N6)nc(OC[C@@H]5CCCN5C)nc4c3F)c21 (stereo partly drawn) [Example 133, 4-((I R,5S)-3,8-diazabicyclo[3.2.1]octan-3-yl)-8-fluoro-7-(8-methyl-5,6,7,8-tetrahydronaphthalen-1-yl)-2-(((S)-1-methylpyrrolidin-2-yl)methoxy)pyrido[4,3-d]pyrimidine]	7.31	6.95
CN1CCC[C@H]1COc1nc(N2C[C@H]3CC[C@@H](C2)N3)c2cnc(-c3cccc4c3C3(CC4)CC3)c(F)c2n1 [Example 162, 4-((1R,5S)-3,8-diazabicyclo[3.2.1]octan-3-yl)-7-(2′,3′-dihydrospiro[cyclopropane-1,1′-inden]-7′-yl)-8-fluoro-2-(((S)-1-methylpyrrolidin-2-yl)methoxy)pyrido[4,3-d]pyrimidine bis(2,2,2-trifluoroacetate)]	6.17	6.26
Fc1c(-c2cncc3cccc(Cl)c23)ncc2c(N3C[C@H]4CC[C@@H](C3)N4)nc(OCC34CCCN3CCC4)nc12 [Example 33, 4-((1R,5S)-3,8-diazabicyclo[3.2.1]octan-3-yl)-7-(5-chloroisoquinolin-4-yl)-8-fluoro-2-((tetrahydro-1H-pyrrolizin-7a(5H)-yl)methoxy)pyrido[4,3-d]pyrimidine bis(2,2,2-trifluoroacetate)]	7.68	7.14
Oc1cc(-c2ncc3c(N4C[C@H]5CC[C@@H](C4)N5)nc(N4CC5(CCOCC5)C4)nc3c2F)c2ccccc2c1 [Example 74, 4-(4-((1R,5S)-3,8-diazabicyclo[3.2.1]octan-3-yl)-8-fluoro-2-(7-oxa-2-azaspiro[3.5]nonan-2-yl)pyrido[4,3-d]pyrimidin-7-yl)naphthalen-2-ol]	6.73	6.85
